Experimental findings from US8093265B2, “Bicycloheteroaryl compounds as P2X7 modulators and uses thereof” (Renovis, Inc., priority 2007, dated 2012) are described below.

The assay concerns the target T1, P2X7 receptor (Homo sapiens, UniProt Q99572).
T1 construct: host or cells: THP-1 cells differentiated with LPS and IFN-γ
T1 sequence (Q99572 1-595): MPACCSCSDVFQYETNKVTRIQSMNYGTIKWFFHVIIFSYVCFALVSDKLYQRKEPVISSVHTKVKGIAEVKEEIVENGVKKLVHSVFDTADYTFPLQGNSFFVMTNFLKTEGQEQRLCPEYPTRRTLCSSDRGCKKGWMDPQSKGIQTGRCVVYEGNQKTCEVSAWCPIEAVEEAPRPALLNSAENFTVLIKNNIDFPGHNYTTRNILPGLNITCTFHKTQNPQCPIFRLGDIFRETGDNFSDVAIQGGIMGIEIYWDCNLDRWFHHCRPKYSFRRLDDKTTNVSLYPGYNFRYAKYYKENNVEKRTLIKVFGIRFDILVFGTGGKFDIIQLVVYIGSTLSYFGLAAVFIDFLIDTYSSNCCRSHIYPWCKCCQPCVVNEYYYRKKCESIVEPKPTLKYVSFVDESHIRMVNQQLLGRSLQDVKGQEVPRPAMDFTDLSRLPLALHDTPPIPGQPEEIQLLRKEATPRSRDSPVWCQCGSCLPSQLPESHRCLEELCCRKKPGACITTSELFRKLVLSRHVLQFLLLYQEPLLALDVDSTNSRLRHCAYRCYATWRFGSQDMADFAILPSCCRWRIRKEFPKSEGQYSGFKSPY
Briefly: IL-1β release assay in differentiated THP-1 cells (Example 9). To be noted: THP-1 cells differentiated with LPS and IFN-γ; 30 min pretreatment; BzATP 250 uM; IL-1β by ELISA. It is filed as cell-based. On the procedure: THP-1 cells (ATCC Cat #285-IF-100) are plated in 96 well plates at a concentration of 200,000 cells per well and allowed to differentiate in RPMI-1640 media (ATCC Cat #30-2001) containing 10% FBS, 100 IU/mL penicillin, 100 ug/mL streptomycin, 100 ng/mL LPS and 100 ng/mL IFN-γ for 16 hours. Following differentiation, the cells are treated for an additional 2 hours in RPMI-1640 media containing 100 IU/mL penicillin, 100 ug/mL streptomycin and fresh LPS at 100 ng/mL. The cells are then pretreated for 30 minutes with the compound of interest at the appropriate concentration in RPMI media containing 100 IU/mL penicillin, 100 ug/mL streptomycin. Following the pretreatment 2′,3′-O-(4-benzoylbenzoyl)-adenosine 5′-triphosphate (Sigma Aldrich Cat # B6396) is added to a final concentration of 250 uM, and the cells are incubated for an additional 45 minutes. 30 uL of cell supernatant is then collected and IL-1β levels are determined via ELISA (R&D systems Cat. # HSLB50) according to manufacturer's recommendations using a Tecan Safire plate reader. Background adjusted IL-1β levels of drug treated and non-treated cells are used to calculate the percent inhibition.
The following compounds have been or can be prepared according to the synthetic methods described herein for example, methods A-AA1. The compounds set forth in Table 1 were tested for activity in a cellular model as described herein. Specifically, cells were pretreated with differing amounts of the compound under test and released IL-1β determined as in Example 9, above. Measurements were made and IC50 values, presented in Table 1, below, were determined by fitting the data to a four parameter logistic equation using GraphPad Prism software (GraphPad Software, Inc). The equation may be expressed by the following formula: Y=Bottom+(Top−Bottom)/(1+10^((Log EC50−X)*HillSlope)) where X is the logarithm of concentration, Y is the response and Y starts at Bottom and goes to Top with a sigmoid shape.

As to `C[C@H](C(=O)Nc1c(Cl)ccc2c(=O)n([C@H](C)C(N)=O)ccc12)c1ccc(Cl)cc1` [Compound 4, (R)-2-{6-Chloro-5-[(S)-2-(4-chloro-phenyl)-propionylamino]-1-oxo-1H-isoquinolin-2-yl}-propionamide], the IC50 (as a rule, the concentration at which inhibition is half-maximal) turned out to be 18 nM.

In the case of `COc1ccc2c(=O)n([C@H](C)C(N)=O)ccc2c1NC(=O)Cc1ccc(C(F)(F)F)cc1` [Compound 7, (R)-2-{6-Methoxy-1-oxo-5-[2-(4-trifluoromethyl-phenyl)-acetylamino]-1H-isoquinolin-2-yl}-propionamide], the IC50 came out at 48 nM.

As to `C[C@@H](C(N)=O)n1ccc2c(NC(=O)Cc3ccc(C(F)(F)F)cc3)c(Cl)ccc2c1=O` [Compound 8, (S)-2-{6-Chloro-1-oxo-5-[2-(4-trifluoromethyl-phenyl)-acetylamino]-1H-isoquinolin-2-yl}-propionamide], the IC50 is 113 nM.

Take `COc1ccc2c(=O)n([C@H](C)CO)ccc2c1NC(=O)Cc1ccc(C(F)(F)F)c(F)c1` [Compound 9, 2-(3-Fluoro-4-trifluoromethyl-phenyl)-N-[2-((R)-2-hydroxy-1-methyl-ethyl)-6-methoxy-1-oxo-1,2-dihydro-isoquinolin-5-yl]-acetamide]: the IC50 amounted to 439 nM.

Consider `C[C@H](CO)n1ccc2c(NC(=O)Cc3ccc(Cl)c(Cl)c3)c(Cl)ccc2c1=O` [Compound 12, N-[6-Chloro-2-((R)-2-hydroxy-1-methyl-ethyl)-1-oxo-1,2-dihydro-isoquinolin-5-yl]-2-(3,4-dichloro-phenyl)-acetamide], for which the IC50 was determined as 13 nM.

In the case of `C[C@H](CO)n1ccc2c(NC(=O)Cc3ccc(C(F)(F)F)cc3F)c(Cl)ccc2c1=O` [Compound 14, N-[6-Chloro-2-((R)-2-hydroxy-1-methyl-ethyl)-1-oxo-1,2-dihydro-isoquinolin-5-yl]-2-(2-fluoro-4-trifluoromethyl-phenyl)-acetamide], the IC50 is 31 nM.

In the case of `C[C@H](CO)n1ccc2c(NC(=O)Cc3ccc(C(F)(F)F)c(F)c3)c(C3CC3)ccc2c1=O` [Compound 17, N-[6-Cyclopropyl-2-((R)-2-hydroxy-1-methyl-ethyl)-1-oxo-1,2-dihydro-isoquinolin-5-yl]-2-(3-fluoro-4-trifluoromethyl-phenyl)-acetamide], the IC50 stood at 9 nM.

Consider `O=C(Cc1cccc(C(F)(F)F)c1F)Nc1c(NCCO)ccc2c(=O)n(CCO)ccc12` [Compound 18, 2-(2-Fluoro-3-trifluoromethyl-phenyl)-N-[2-(2-hydroxy-ethyl)-6-(2-hydroxy-ethylamino)-1-oxo-1,2-dihydro-isoquinolin-5-yl]-acetamide], for which the IC50 worked out at 1670 nM.

Take `O=C(Cc1cccc(C(F)(F)F)c1F)Nc1c(Cl)ccc2c(=O)n(CCO)ccc12` [Compound 20, N-[6-Chloro-2-(2-hydroxy-ethyl)-1-oxo-1,2-dihydro-isoquinolin-5-yl]-2-(2-fluoro-3-trifluoromethyl-phenyl)-acetamide]: the IC50 was 63 nM.

As to `Cc1ccc2c(=O)n(CCO)ccc2c1NC(=O)Cc1cccc(C(F)(F)F)c1F` [Compound 24, 2-(2-Fluoro-3-trifluoromethyl-phenyl)-N-[2-(2-hydroxy-ethyl)-6-methyl-1-oxo-1,2-dihydro-isoquinolin-5-yl]-acetamide], the IC50 turned out to be 65 nM.

With `Cc1ccc2c(=O)n(CCO)ccc2c1NC(=O)Cc1ccc(F)c(C(F)(F)F)c1` [Compound 27, 2-(4-Fluoro-3-trifluoromethyl-phenyl)-N-[2-(2-hydroxy-ethyl)-6-methyl-1-oxo-1,2-dihydro-isoquinolin-5-yl]-acetamide], the IC50 worked out at 7 nM.

For `Cc1ccc2c(=O)n([C@H](C)CO)ccc2c1NC(=O)CC12CC3CC(CC(C3)C1)C2` [Compound 31, 2-Adamantan-1-yl-N-[2-((R)-2-hydroxy-1-methyl-ethyl)-6-methyl-1-oxo-1,2-dihydro-isoquinolin-5-yl]-acetamide], the IC50 worked out at 5 nM.

In the case of `Cc1ccc2c(=O)n([C@H](C)CO)ccc2c1NC(=O)CC1CCCCCC1` [Compound 32, 2-Cycloheptyl-N-[2-((R)-2-hydroxy-1-methyl-ethyl)-6-methyl-1-oxo-1,2-dihydro-isoquinolin-5-yl]-acetamide], the IC50 stood at 9 nM.

As to `Cc1ccc2c(=O)n([C@@H](C)CO)ccc2c1NC(=O)Cc1ccc(C(F)(F)F)c(F)c1` [Compound 33, (S)-2-(3-fluoro-4-(trifluoromethyl)phenyl)-N-(2-(1-hydroxypropan-2-yl)-6-methyl-1-oxo-1,2-dihydroisoquinolin-5-yl)acetamide], the IC50 stood at 53 nM.

For the compound `C[C@@H](CO)n1ccc2c(NC(=O)Cc3ccc(C(F)(F)F)c(F)c3)c(Cl)ccc2c1=O` [Compound 34, N-[6-Chloro-2-((S)-2-hydroxy-1-methyl-ethyl)-1-oxo-1,2-dihydro-isoquinolin-5-yl]-2-(3-fluoro-4-trifluoromethyl-phenyl)-acetamide], the IC50 is 23 nM.

As for `Cc1ccc2c(=O)n([C@H](C)CO)ccc2c1NC(=O)Cc1cccc(C(F)(F)F)c1` [Compound 35, N-[2-((R)-2-Hydroxy-1-methyl-ethyl)-6-methyl-1-oxo-1,2-dihydro-isoquinolin-5-yl]-2-(3-trifluoromethyl-phenyl)-acetamide], the IC50 turned out to be 2 nM.

For `C[C@H](CO)n1ccc2c(NC(=O)CC3CCCCCC3)c(Cl)ccc2c1=O` [Compound 36, N-[6-Chloro-2-((R)-2-hydroxy-1-methyl-ethyl)-1-oxo-1,2-dihydro-isoquinolin-5-yl]-2-cycloheptyl-acetamide], the IC50 was determined as 4 nM.

As for `Cc1ccc2c(=O)n([C@H](C)CO)ccc2c1NC(=O)CC1(O)CCCCCC1` [Compound 37, 2-(1-Hydroxy-cycloheptyl)-N-[2-((R)-2-hydroxy-1-methyl-ethyl)-6-methyl-1-oxo-1,2-dihydroisoquinolin-5-yl]-acetamide], the IC50 came out at 42 nM.

In the case of `CNCCn1ccc2c(NC(=O)Cc3ccc(C(F)(F)F)c(F)c3)c(C)ccc2c1=O` [Compound 38, 2-(3-Fluoro-4-trifluoromethyl-phenyl)-1-[6-methyl-2-(2-methylamino-ethyl)-1-oxo-1,2-dihydroisoquinolin-5-yl]-acetamide], the IC50 came to 43 nM.

In the case of `C[C@H](CO)n1ccc2c(NC(=O)Cc3cccc(C(F)(F)F)c3)c(Cl)ccc2c1=O` [Compound 39, N-[6-Chloro-2-((R)-2-hydroxy-1-methyl-ethyl)-1-oxo-1,2-dihydro-isoquinolin-5-yl]-2-(3-trifluoromethyl-phenyl)-acetamide], the IC50 was determined as 1 nM.

As for `C[C@H](CO)n1ccc2c(C(=O)NCc3ccc(C(F)(F)F)nc3)c(Cl)ccc2c1=O` [Compound 43, 6-Chloro-2-((R)-2-hydroxy-1-methyl-ethyl)-1-oxo-1,2-dihydro-isoquinoline-5-carboxylic acid (6-trifluoromethyl-pyridin-3-ylmethyl)-amide], the IC50 turned out to be 310 nM.

As for `C[C@H](CO)n1ccc2c(C(=O)NCc3ccccc3C(F)(F)F)c(Cl)ccc2c1=O` [Compound 46, 6-Chloro-2-((R)-2-hydroxy-1-methyl-ethyl)-1-oxo-1,2-dihydro-isoquinoline-5-carboxylic acid 2-trifluoromethyl-benzylamide], the IC50 was found to be 500 nM.

Take `C[C@H](CO)n1ccc2c(C(=O)NCC3CCCCCC3)c(Cl)ccc2c1=O` [Compound 48, 6-Chloro-2-((R)-2-hydroxy-1-methyl-ethyl)-1-oxo-1,2-dihydro-isoquinoline-5-carboxylic acid cycloheptylmethyl-amide]: the IC50 amounted to 0.2 nM.

`Cc1ccc2c(=O)n([C@H](C)CO)ccc2c1C(=O)NCc1ccc(Cl)c(F)c1` [Compound 50, 2-((R)-2-Hydroxy-1-methyl-ethyl)-6-methyl-1-oxo-1,2-dihydro-isoquinoline-5-carboxylic acid 4-chloro-3-fluoro-benzylamide]: the IC50 was 3 nM.
